The text below walks through data of the METLIN SMRT retention time set (Domingo-Almenara et al. 2019).

The data set can be described thus: gradient 5% acetonitrile 3 min, to 50% in 2 min, to 85% in 15 min, held 3 min, 100 µL/min. The settings on record: column: Zorbax Extend-C18 2.1 x 50 mm; eluents: water / acetonitrile, 0.1% formic acid. In short, it runs like this: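 The system's dead and dwell volumes were 40 μL and 900 μL, with a Zorbax Extend-C18 column (2.1 × 50 mm, 1.8 μm) run at 100 μL/min in water and acetonitrile containing 0.1% formic acid each. Pure standards were analyzed in mixtures of ~100 molecules by HPLC–quadrupole time-of-flight mass spectrometry in positive and negative ionization mode. Retention time was assigned from computationally picked, manually inspected adduct peaks.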
`Cn1c(=O)n(C2CCCN(C(=O)Cc3ccccc3)C2)c2ncncc21` (stereo not drawn): the RP-LC retention time stood at 668 s.

With `Cc1nnc(N2CCCC(C(=O)NCc3ccco3)C2)c2nn(-c3ccccc3)c(C)c12` (stereo not drawn), the RP-LC retention time was determined as 680 s.

Take `CC(C)CN1CCN(Cc2nc(Cn3ccn4nc(-c5ccccc5)cc4c3=O)no2)CC1`: the RP-LC retention time was determined as 665 s.

`COCC(=O)Nc1nc(-c2ccc3c(c2)NC(=O)C(C)O3)cs1` (stereo not drawn) yielded an RP-LC retention time of 691 s.

`O=C(CN1CCN(C(=O)Nc2ccc(F)cc2)CC1=O)N1CCCC1` had an RP-LC retention time of 615 s.

`CS(=O)(=O)Nc1ccc(-c2noc(-c3ccc4c(c3)OCO4)n2)cc1` had an RP-LC retention time of 897 s.

Take `COc1ccc(-c2noc(CC3CCN(C(=O)C4(c5ccc(OC)cc5)CC4)CC3)n2)cc1`: the RP-LC retention time is 1030 s.

In turn, `COC(=O)c1ncn2c1C(=O)N(c1ccccc1C)C(C)(C(=O)NCc1ccc(C)cc1)C2` (stereo not drawn) came in with an RP-LC retention time of 726 s.

As to `O=C(C1CCN(c2nc3cccnc3s2)CC1)N1CCN(c2ccccn2)CC1`, the RP-LC retention time came to 590 s.

`COc1ccc(CN2C(=O)COC[C@H]2C(=O)NCc2ccco2)c(OC)c1`: the RP-LC retention time amounted to 704 s.

As for `Cc1nn(-c2cc(N3CCCCC3)ncn2)c(C)c1CCC(=O)N1CCN(c2ccccn2)CC1`, the RP-LC retention time was 639 s.

For `COc1ccccc1NC(=O)N1CCOc2ccc(Cl)cc21`, the RP-LC retention time worked out at 1050 s.

For `Cn1nccc1C(=O)Nc1sccc1-c1nc2ccccc2s1`, the RP-LC retention time was determined as 1280 s.

On to `Cc1noc(-c2ccc(=O)n(C(C)C(=O)NCc3cccs3)c2)n1` (stereo not drawn), for which the RP-LC retention time worked out at 646 s.

`CCn1ccc(C(=O)N2CCCn3nc(-c4ccc(OC)cc4)cc3C2)n1` showed an RP-LC retention time of 756 s.

Turning to `COC(=O)c1cc(C2CC2)nc2c1c(=O)n(Cc1cccc(F)c1)c(=O)n2C`, the RP-LC retention time was 1130 s.

For the compound `Cc1cc(C)cc(NS(=O)(=O)c2ccc(-c3c(C)noc3C)cc2)c1`, the RP-LC retention time was determined as 989 s.

`CNC(=O)c1ccc(-c2nc3cc(NS(=O)(=O)c4cc(Cl)ccc4OC)ccc3n2C)cc1` came in with an RP-LC retention time of 671 s.

As for `CC(C)OCCCNC(=O)C1CCN(c2nc3cccnc3s2)CC1`, the RP-LC retention time came to 659 s.

`CN1C(=O)c2cccnc2Sc2cc(NC(=O)c3ccc(F)cc3Cl)ccc21` registered an RP-LC retention time of 796 s.

As for `CCC(C)NC(=O)C1CCN(S(=O)(=O)c2c(C)nn(-c3ccc(C)cc3)c2C)CC1` (stereo not drawn), the RP-LC retention time stood at 683 s.

In turn, `CCOc1ccc(S(=O)(=O)Nc2ccc3c(c2)CCC(=O)N3CC(C)C)cc1` gave an RP-LC retention time of 901 s.

The compound `COc1ccc(N2C(=O)C3N=NN(Cc4nc(-c5cccc(C)c5)no4)C3C2=O)cc1` (stereo not drawn) registered an RP-LC retention time of 993 s.

`CN1c2cc(C(=O)NCc3cc(F)cc(F)c3)ccc2C(=O)N2CCCCC21` (stereo not drawn) gave an RP-LC retention time of 844 s.

As to `O=C(CSc1nnc(COc2ccccc2Cl)o1)Nc1nc(-c2ccccc2)cs1`, the RP-LC retention time is 917 s.

`CC(C)c1nnc(-c2ccc(=O)n(CC(=O)N3CCN(c4ccccn4)CC3)c2)o1`: the RP-LC retention time is 570 s.

Turning to `Cc1nc(N2CCCCC2)cc(N2CCN(C(=O)c3ccc(Br)o3)CC2)n1`, the RP-LC retention time came out at 689 s.

`O=C(NC(c1ccccc1)c1nnc(N2CCCC2)o1)c1ccccc1Cl` (stereo not drawn) returned an RP-LC retention time of 867 s.

As for `CC(C)CN1CCN(C(=O)C2CC(=O)N(CCc3ccccc3)C2)CC1` (stereo not drawn), the RP-LC retention time turned out to be 580 s.

Compound `COc1ccc(-c2nnc(-c3nc(NCc4ccc(C)o4)c4ccccc4n3)o2)cc1` yielded an RP-LC retention time of 985 s.

Regarding `Cc1cccc(C2CC(=O)c3c(C)nc(N4CCN(CCO)CC4)nc3C2)c1` (stereo not drawn), the RP-LC retention time was 665 s.

Consider `C=CCOc1ccc(S(C)(=O)=O)cc1`, for which the RP-LC retention time was 814 s.

For the compound `Fc1cc(F)cc(-c2nnc(Cc3nc(-c4ccccn4)no3)o2)c1`, the RP-LC retention time was determined as 814 s.

For the compound `O=C(Cn1nc(Cc2cccnc2)c2ccccc2c1=O)NCCC1=CCCCC1`, the RP-LC retention time stood at 663 s.

Take `CCC(=O)N(C1CCOCC1)C1CCN(S(=O)(=O)c2ccc(F)c(C)c2)CC1`: the RP-LC retention time turned out to be 836 s.

`Cc1ccc(Cn2c(=O)n(CCNC(=O)C3CC3)c3ncccc32)cc1`: the RP-LC retention time was 740 s.

`O=C(NCc1csc(-c2cccs2)n1)C1CCN(S(=O)(=O)c2ccc(Cl)cc2)CC1` gave an RP-LC retention time of 927 s.

Compound `CCCCOc1ccc(CNC(=O)C2CCCN(C(=O)c3[nH]c(C)c(C(=O)OC)c3C)C2)cc1` (stereo not drawn) came in with an RP-LC retention time of 930 s.

In the case of `CC(=O)N1CCc2cc(N3CC(C(=O)Nc4cc(F)ccc4F)CC3=O)ccc21` (stereo not drawn), the RP-LC retention time came to 712 s.

As to `COc1ccc(C2(C(=O)N3CC(c4nc(CCOCc5ccccc5)no4)C3)CC2)cc1`, the RP-LC retention time is 972 s.

Take `O=C(COc1ccc(-c2cnc3ccccc3n2)cc1)NCCN1CCCC1`: the RP-LC retention time came out at 623 s.

In turn, `Cc1cc(NC(=O)Cn2nc(C(=O)N3CCCC3)c3ccccc32)ccc1Br` came in with an RP-LC retention time of 948 s.

For the compound `O=C(C1CCN(c2cc(N3CCCCC3)ncn2)CC1)N1CCN(c2ccccc2)CC1`, the RP-LC retention time stood at 724 s.

`O=C(C1CCCCC1)N1CCc2nc(-c3ccc(Cl)cc3)ncc2C1` yielded an RP-LC retention time of 1180 s.

Compound `CCn1cc(C)c(C(=O)O)c1CC(=O)Nc1cccc(C)n1` showed an RP-LC retention time of 678 s.

`CC(C)NC(=O)c1ccc(OCC2CCCN2C(=O)Cc2cccs2)cc1` (stereo not drawn) had an RP-LC retention time of 807 s.

`CC(CCNC(=O)c1nnc(-c2ccc(S(=O)(=O)N3CCCC3)cc2)o1)N1CCCCCC1` (stereo not drawn) registered an RP-LC retention time of 644 s.

As for `COc1ccc(-c2noc(C3CCCN3C(=O)NC3CCCC3)n2)cc1` (stereo not drawn), the RP-LC retention time was determined as 881 s.

`COc1cccc(CNC(=O)c2ccc(CN3CCN(C(C)C)C(=O)C3=O)cc2)c1`: the RP-LC retention time worked out at 693 s.

Turning to `Cc1cc(-c2nnc(-c3ccccc3)o2)c(C)n1CC(=O)Nc1cccc(Cl)c1`, the RP-LC retention time came out at 1030 s.

`CCOc1ccc(NC(=O)c2cc(S(=O)(=O)N3CCCC(C)C3)cn2C)cc1` (stereo not drawn) showed an RP-LC retention time of 1080 s.

Regarding `CSc1ccccc1C(=O)N(CCN(C)C)c1nc2ccc([N+](=O)[O-])cc2s1`, the RP-LC retention time amounted to 615 s.

In turn, `Cc1sc(-c2cc(C(F)(F)F)on2)cc1S(=O)(=O)NCCC(C)C` gave an RP-LC retention time of 1200 s.

Compound `COc1cccc(-c2nc(C3CCN(S(=O)(=O)c4ccc(C)c(C)c4)CC3)no2)c1` came in with an RP-LC retention time of 1180 s.

`Cc1ccccc1CNC(=O)c1ccc2c(c1)ncn2CCN1CCCC1` displayed an RP-LC retention time of 582 s.

`Cc1ccc(-c2csc3c(=O)n(Cc4ccccn4)cnc23)cc1` had an RP-LC retention time of 889 s.

Compound `COc1ccccc1-c1coc2cc(OC(=O)c3cccc([N+](=O)[O-])c3)ccc2c1=O` had an RP-LC retention time of 1010 s.

Turning to `Cc1cc(C)c2c(N3CCCC3)nc(C(=O)Nc3ccc4c(c3)OCO4)nc2n1`, the RP-LC retention time was determined as 656 s.
